# How the values were obtained:
# Cannabinoid receptor 1 [1] = target: T1, Cannabinoid receptor 1 (Homo sapiens, UniProt P21554); experiment: Displacement of [3H]-CP55940 from recombinant human CB1 receptor expressed in HEK293-EBNA cell membranes after 90 mins by scintillation counting method
# Cannabinoid receptor 2 [2] = target: T2, Cannabinoid receptor 2 (Homo sapiens, UniProt P34972); experiment: Displacement of [3H]-CP55940 from recombinant human CB2 receptor expressed in HEK293 cell membranes after 90 mins by scintillation counting method
# T2 sequence (P34972 whole entry): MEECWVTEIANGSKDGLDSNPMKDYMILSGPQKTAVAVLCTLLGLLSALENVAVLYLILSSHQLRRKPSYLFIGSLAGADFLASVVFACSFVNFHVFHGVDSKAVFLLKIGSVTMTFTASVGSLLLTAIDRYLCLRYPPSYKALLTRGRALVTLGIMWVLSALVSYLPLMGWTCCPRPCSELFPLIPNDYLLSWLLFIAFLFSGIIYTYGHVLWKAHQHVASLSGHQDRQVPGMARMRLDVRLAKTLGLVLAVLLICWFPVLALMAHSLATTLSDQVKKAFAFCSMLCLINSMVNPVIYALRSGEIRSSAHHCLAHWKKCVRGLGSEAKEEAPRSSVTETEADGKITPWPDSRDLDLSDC
# Cannabinoid receptor 2 [3] = target: T2, Cannabinoid receptor 2; experiment: Displacement of [3H]-CP55940 from recombinant human CB2 receptor expressed in HEK293 cell membranes measured after 90 mins
# Cannabinoid receptor 1 [4] = target: T1, Cannabinoid receptor 1; experiment: Displacement of [3H]-CP55940 from CB1 receptor (unknown origin)
# Cannabinoid receptor 2 [5] = target: T2, Cannabinoid receptor 2; experiment: Displacement of [3H]-CP55940 from CB2 receptor (unknown origin)
# Cannabinoid receptor 1 [6] = target: Cannabinoid receptor 1 (Rattus norvegicus, UniProt P20272); experiment: Displacement of [3H]-CP55940 from CB1 receptor in rat […] membranes after 60 mins by scintillation counting method; type: cell membranes
# Chain of Cannabinoid receptor 1 (Rattus norvegicus, UniProt P20272) (P20272 whole entry): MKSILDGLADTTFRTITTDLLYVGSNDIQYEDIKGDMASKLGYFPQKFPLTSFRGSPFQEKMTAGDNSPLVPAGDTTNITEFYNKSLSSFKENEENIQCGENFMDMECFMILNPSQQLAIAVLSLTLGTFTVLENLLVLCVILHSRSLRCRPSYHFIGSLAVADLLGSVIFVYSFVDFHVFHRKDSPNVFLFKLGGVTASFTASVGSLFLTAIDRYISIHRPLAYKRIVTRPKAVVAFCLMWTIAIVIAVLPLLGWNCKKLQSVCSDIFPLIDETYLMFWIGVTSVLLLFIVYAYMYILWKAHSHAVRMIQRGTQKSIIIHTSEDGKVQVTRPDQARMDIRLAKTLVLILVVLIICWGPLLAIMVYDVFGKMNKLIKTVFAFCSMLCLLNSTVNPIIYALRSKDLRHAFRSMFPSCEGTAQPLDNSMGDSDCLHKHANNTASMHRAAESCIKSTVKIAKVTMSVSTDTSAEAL
# Cannabinoid receptor 2 [7] = target: Cannabinoid receptor 2 (Mus musculus, UniProt P47936); experiment: Displacement of [3H]-CP55940 from CB2 receptor in mouse spleen membranes after 60 mins by scintillation counting method; type: cell membranes
# Chain of Cannabinoid receptor 2 (Mus musculus, UniProt P47936) (P47936 whole entry): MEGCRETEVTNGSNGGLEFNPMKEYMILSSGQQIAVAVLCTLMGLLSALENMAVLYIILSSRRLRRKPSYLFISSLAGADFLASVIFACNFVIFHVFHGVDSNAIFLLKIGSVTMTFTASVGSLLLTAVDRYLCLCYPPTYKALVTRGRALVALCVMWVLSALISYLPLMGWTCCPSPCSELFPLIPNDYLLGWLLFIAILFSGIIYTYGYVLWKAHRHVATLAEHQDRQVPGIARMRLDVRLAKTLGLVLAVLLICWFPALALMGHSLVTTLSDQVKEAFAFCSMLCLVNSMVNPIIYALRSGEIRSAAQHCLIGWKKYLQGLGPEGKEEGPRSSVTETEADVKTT
# U-937 = experiment: Inhibition of [14C]-AEA uptake in human U937 cells preincubated for 15 mins followed by [14C]-AEA addition and measured after 5 mins by scintillation counting method; type: functional, cell-based
# [8] = target: T3, Fatty-acid amide hydrolase 1 (Homo sapiens, UniProt O00519); experiment: Inhibition of FAAH in human U937 cell homogenates using [14C]-AEA as substrate preincubated for 15 mins followed by substrate addition and measured after 15 mins by liquid scintillation counting method
# T3 sequence (O00519 whole entry): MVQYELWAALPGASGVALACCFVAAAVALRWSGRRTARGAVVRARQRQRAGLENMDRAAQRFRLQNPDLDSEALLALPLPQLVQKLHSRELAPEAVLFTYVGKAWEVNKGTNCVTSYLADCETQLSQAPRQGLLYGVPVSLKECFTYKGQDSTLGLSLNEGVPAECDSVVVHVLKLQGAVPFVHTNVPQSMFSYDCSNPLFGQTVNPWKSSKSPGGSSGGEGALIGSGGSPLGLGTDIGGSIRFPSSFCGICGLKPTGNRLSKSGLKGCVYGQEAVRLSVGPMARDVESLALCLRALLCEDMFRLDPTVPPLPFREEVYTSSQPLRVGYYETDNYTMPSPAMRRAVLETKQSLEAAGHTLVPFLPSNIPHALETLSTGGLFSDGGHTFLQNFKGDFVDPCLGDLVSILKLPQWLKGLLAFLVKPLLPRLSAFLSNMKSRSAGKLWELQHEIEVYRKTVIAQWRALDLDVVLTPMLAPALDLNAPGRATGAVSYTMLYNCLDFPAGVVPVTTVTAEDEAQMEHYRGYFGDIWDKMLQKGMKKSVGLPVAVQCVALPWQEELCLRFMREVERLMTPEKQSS
# [9] = target: T4, Fatty-acid amide hydrolase 1 (Homo sapiens) (UniProt O00519); experiment: Inhibition of FAAH in human U937 cell homogenates at 100 uM using [14C]-AEA as substrate preincubated for 15 mins followed by substrate addition and measured after 15 mins by liquid scintillation counting method relative to control
# T4 sequence (whole entry): T3 sequence (O00519 whole entry)
# Monoglyceride lipase = target: T5, Monoglyceride lipase (Homo sapiens, UniProt Q99685); experiment: Inhibition of MAGL in human U937 cell homogenates using [3H]-2OG as substrate preincubated for 15 mins followed by substrate addition and measured after 15 mins by liquid scintillation counting method
# T5 sequence (Q99685 whole entry): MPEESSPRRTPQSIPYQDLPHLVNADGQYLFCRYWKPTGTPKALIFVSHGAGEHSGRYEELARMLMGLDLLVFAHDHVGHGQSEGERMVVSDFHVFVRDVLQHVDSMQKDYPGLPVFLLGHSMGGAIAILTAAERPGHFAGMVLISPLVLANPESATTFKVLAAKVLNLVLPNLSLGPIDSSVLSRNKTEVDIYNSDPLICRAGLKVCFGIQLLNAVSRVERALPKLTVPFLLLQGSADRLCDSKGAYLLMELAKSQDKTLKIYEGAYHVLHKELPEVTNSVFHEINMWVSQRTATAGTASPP
# Cannabinoid receptor 1 [10] = target: T1, Cannabinoid receptor 1; experiment: Displacement of [3H]-CP55940 from recombinant human CB1 receptor measured after 2 hrs by liquid scintillation counting method
# Cannabinoid receptor 2 [11] = target: T2, Cannabinoid receptor 2; experiment: Displacement of [3H]-CP55940 from recombinant human CB2 receptor measured after 2 hrs by liquid scintillation counting method
# [12] = target: Fatty acid-binding protein 5 (Homo sapiens, UniProt Q01469); experiment: Displacement of NBD-Stearate from recombinant human FABP5 measured after 30 mins by fluorescence polarization assay
# Chain of Fatty acid-binding protein 5 (Q01469 whole entry): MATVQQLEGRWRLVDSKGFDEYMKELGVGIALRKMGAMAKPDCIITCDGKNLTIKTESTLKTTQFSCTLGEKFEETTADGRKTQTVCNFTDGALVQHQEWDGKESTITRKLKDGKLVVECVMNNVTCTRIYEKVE
# Cannabinoid receptor 2 [13] = target: T2, Cannabinoid receptor 2; experiment: Displacement of [3H]-CP55940 from recombinant CB2 receptor (unknown origin) expressed in cell membranes after 90 mins by scintillation counting method
# T1 sequence (P21554 whole entry): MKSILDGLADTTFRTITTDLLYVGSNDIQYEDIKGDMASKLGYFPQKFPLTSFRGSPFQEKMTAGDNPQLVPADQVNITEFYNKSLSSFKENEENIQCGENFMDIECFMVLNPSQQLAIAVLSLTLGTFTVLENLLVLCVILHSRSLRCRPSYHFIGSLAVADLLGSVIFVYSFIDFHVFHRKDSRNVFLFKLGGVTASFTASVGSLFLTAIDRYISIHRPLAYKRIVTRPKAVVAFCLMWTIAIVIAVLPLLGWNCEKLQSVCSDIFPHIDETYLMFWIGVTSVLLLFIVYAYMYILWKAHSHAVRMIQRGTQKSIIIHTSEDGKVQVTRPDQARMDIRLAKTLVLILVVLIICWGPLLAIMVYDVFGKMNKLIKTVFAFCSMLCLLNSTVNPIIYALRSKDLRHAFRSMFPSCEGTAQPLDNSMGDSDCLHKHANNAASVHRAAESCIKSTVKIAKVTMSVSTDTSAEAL
smiles,measurement,setting,value
C#CC#CCCCC/C=C/C(=O)NCC(C)C,Ki,Cannabinoid receptor 1 [1],> 40 µM
same,Ki,Cannabinoid receptor 2 [2],> 40 µM
CC(C)=CCC/C(C)=C/Cc1c(O)cc(CCc2ccccc2)c(C(=O)O)c1O,Ki,Cannabinoid receptor 2 [3],0.828 µM
Oc1cc(O)c2c(c1)O[C@H](c1cc(O)c(O)c(O)c1)[C@H](O)C2 [EPIGALLOCATECHIN],Ki,Cannabinoid receptor 1 [4],35.7 µM
same,Ki,Cannabinoid receptor 2 [5],361 µM
CCC/C=C\CC/C=C/C=C/C(=O)NCC(C)C,Ki,Cannabinoid receptor 1 [6],11 µM
same,Ki,Cannabinoid receptor 2 [7],8.38 µM
C/C=C\C=C/CC/C=C/C=C/C(=O)NCC(C)C,Ki,Cannabinoid receptor 1 [1],6.21 µM
same,Ki,Cannabinoid receptor 2 [2],0.057 µM
CC#CC#CCCCC/C=C/C=C/C(=O)NCC(C)C,Ki,Cannabinoid receptor 1 [6],24.6 µM
same,Ki,Cannabinoid receptor 2 [7],1.87 µM
CC(C)CNC(=O)/C=C/C=C/CCCCCC/C=C/c1ccc2c(c1)OCO2 [GUINEENSINE],Efficacy,U-937,65%
same,EC50,"U-937; Homo sapiens, U-937",0.29 µM
same,IC50,[8],46.8 µM
same,inhibition,[9],59%
same,Ki,Monoglyceride lipase,> 100 µM
same,Ki,Cannabinoid receptor 1 [10],> 20 µM
same,Ki,Cannabinoid receptor 2 [11],38.3 µM
same,Ki,[12],> 100 µM
C/C=C\C=C\CC/C=C/C=C/C(=O)NCC(C)C,Ki,Cannabinoid receptor 2 [13],4.53 µM
CC#CC#CCCCC/C=C/C(=O)NCC(C)CC (stereo unspecified),Ki,Cannabinoid receptor 1 [6],6.73 µM
same,Ki,Cannabinoid receptor 2 [7],7.2 µM
O=C(O[C@@H]1Cc2c(O)cc(O)cc2O[C@@H]1c1ccc(O)c(O)c1)c1cc(O)c(O)c(O)c1 [EPICATECHIN GALLATE],Ki,Cannabinoid receptor 1 [4],47.3 µM
same,Ki,Cannabinoid receptor 2 [5],95.6 µM
C/C=C/C=C\CC/C=C/C=C/C(=O)NCC(C)C,Ki,Cannabinoid receptor 2 [13],9.04 µM
O=C(O[C@@H]1Cc2c(O)cc(O)cc2O[C@@H]1c1cc(O)c(O)c(O)c1)c1cc(O)c(O)c(O)c1 [EPIGALOCATECHIN GALLATE],Ki,Cannabinoid receptor 2 [5],42.8 µM
